# In patent EP0381959B1, “Cyclohexaneacetamide derivatives” (F. HOFFMANN-LA ROCHE AG, priority 1989, dated 1990):
# Tested on: male C57Bl/10 mice
# Test: Morris water maze task (latency to locate hidden platform)
# Format: in vivo
# Conditions: Dose-Response (IP), intraperitoneal, dissolved in saline, 30 minutes prior to testing
# Excerpt: The test animals were male C57Bl/10 mice, weighing 17-21 grams at the time of testing. Mice were housed in groups of 10 and had ad lib access to food and water. Mice of this strain appear to be deficient in learning the water maze task and are therefore suitable for use in drug evaluation.[Symons, J.P., Davis, R.E., and Marriott J.G. Life Sciences, 1988, 42, 375-383.] The Morris water maze task requires an animal to attend to spatial cues in order to locate the position of a hidden platform submerged underwater. [Morris, B. G. Learning and Motivation , 1981, 12, 239-260, and Symons, J.P., Davis, R.E., and Marriott J.G. Life Sciences, 1988, 42, 375-383.] The maze consisted of a 60 cm x 60 cm x 60 cm transparent plexiglas chamber filled to a depth of 30 cm, leaving 30 cm of wall extended up from the water surface. The water was made opaque by the addition of powdered milk. The water temperature was maintained at 20 °C. Both distal cues (i.e., standard room objects) and proximal cues (that is, 20 cm x 22 cm unique black and white patterns pasted to the center of each of the four walls of the maze) were used. The submerged platform, 8 x 8 cm, 1 cm below the water's surface was positioned near one of the four corners of the maze. […] The time required for each animal to locate the platform on each of the four trials was recorded (latency). […]
compound,measurement,value
"NC(=O)[C@@H]1CCCN1C(=O)[C@H](Cc1c[nH]cn1)NC(=O)[C@@H]1CCC(=O)N1 [TRH, pGlu-His-ProNH₂]",Active Dose Range,0.1 to 0.3 mg/kg
